Source: patent USRE48097E1, “Cephem compounds, their production and use” (priority 2015, dated 2020)
Values after ≈ are worked out from the molar mass of the structure shown. Where two headings read alike, the source gives them in different places.

Tests used:
[1] = tested on: S. aureus 3147; test: MIC against S. aureus 3147; assay type: cell-based; conditions: Staphylococcus aureus; Table 2; S. aureus 3147, MSSA; alone; read-out: MIC
Text: (§1) Without limitation, the present cephem compounds alone, or in combination with one or more β-lactamase inhibitors, may provide improved antibacterial efficacy, particularly in antibiotic-resistant bacterial strains. It is believed that the present compounds may be structurally different from known compounds and, as a result, may be more basic in nature. It is an advantage that the present compounds may extend the spectrum of effective bacterial compounds, particularly against previously-resistant bacteria (e.g. ESKAPE organisms), and/or gram negative bacteria, without significant side effects. In a preferred embodiment, the present cephem compound may comprise reference compound ceftazidime, which may be used alone, or in combination with one or more β-lactamase inhibitors, such as NXL-104. As shown, the foregoing composition was tested for minimum inhibitory concentration (MIC, μg/mL) against bacteria listed in Tables 2-3.

[2] = tested on: S. pneumoniae 2404; test: MIC against S. pneumoniae 2404; assay type: cell-based; conditions: Streptococcus pneumoniae; Table 2; S. pneumoniae 2404, Pen S; alone; read-out: MIC
Text: as §1

[3] = tested on: C. freundii 2003; test: MIC against C. freundii 2003; assay type: cell-based; conditions: Citrobacter freundii; Table 2; C. freundii 2003, Caz R, IMP S; alone; read-out: MIC
Text: as §1

[4] = tested on: S. pneumoniae 2392; test: MIC against S. pneumoniae 2392; assay type: cell-based; conditions: Streptococcus pneumoniae; Table 2; S. pneumoniae 2392, Pen R; alone; read-out: MIC
Text: as §1

[5] = tested on: M. morganii 2409; test: MIC against M. morganii 2409; assay type: cell-based; conditions: Morganella morganii; Table 2; M. morganii 2409, High level cephase, β-Lactamase producing; alone; read-out: MIC
Text: as §1

[6] = tested on: P. aeruginosa 2573; test: MIC against P. aeruginosa 2573; assay type: cell-based; conditions: Pseudomonas aeruginosa; Table 2; P. aeruginosa 2573, OXA-10 (Class D); alone; read-out: MIC
Text: as §1

[7] = tested on: C. freundii 579; test: MIC against C. freundii 579; assay type: cell-based; conditions: Citrobacter freundii; Table 2; C. freundii 579, Caz R, IMP S; alone; read-out: MIC
Text: as §1

[8] = tested on: E. cloacae596; test: MIC against E. cloacae596; assay type: cell-based, E. cloacae; conditions: Enterobacter cloacae; Table 2; E. cloacae596, Caz R, IMP S; alone; read-out: MIC
Text: as §1

[9] = tested on: S. pneumoniae 2493; test: MIC against S. pneumoniae 2493; assay type: cell-based; conditions: Streptococcus pneumoniae; Table 2; S. pneumoniae 2493, Pen R; alone; read-out: MIC
Text: as §1

[10] = tested on: K. pneumoniae 2697; test: MIC against K. pneumoniae 2697; assay type: cell-based; conditions: Klebsiella pneumoniae; Table 2; K. pneumoniae 2697, IMP-4; alone; read-out: MIC
Text: as §1

[11] = tested on: E. coli 102; test: MIC against E. coli 102; assay type: cell-based; conditions: Escherichia coli; Table 2; E. coli 102, TEM-1; alone; read-out: MIC
Text: as §1

[12] = tested on: C. freundii 15; test: MIC against C. freundii 15; assay type: cell-based; conditions: Citrobacter freundii; Table 2; C. freundii 15, Caz R, IMP S; alone; read-out: MIC
Text: as §1

[13] = tested on: S. pneumoniae 2403; test: MIC against S. pneumoniae 2403; assay type: cell-based; conditions: Streptococcus pneumoniae; Table 2; S. pneumoniae 2403, Pen S; alone; read-out: MIC
Text: as §1

[14] = tested on: S. pneumoniae ATCC 6301; test: MIC against S. pneumoniae ATCC 6301; assay type: cell-based; conditions: Streptococcus pneumoniae, ATCC6301; Table 2; S. pneumoniae ATCC 6301, Pen S; alone; read-out: MIC
Text: as §1

[15] = tested on: E. cloacae 2706; test: MIC against E. cloacae 2706; assay type: cell-based; conditions: Enterobacter cloacae; Table 3; E. cloacae 2706, VIM-1, KPC-3; alone; read-out: MIC
Experimental: (§2) As shown, the foregoing composition was tested for minimum inhibitory concentration (MIC, μg/mL) against bacteria listed in Tables 2-3.

[16] = tested on: E. cloacae 2044; test: MIC against E. cloacae 2044; assay type: cell-based; conditions: Enterobacter cloacae; Table 2; E. cloacae 2044, Caz S, IMP S; alone; read-out: MIC
Text: as §1

[17] = tested on: C. freundii 580; test: MIC against C. freundii 580; assay type: cell-based; conditions: Citrobacter freundii; Table 2; C. freundii 580, Caz R, IMP S; alone; read-out: MIC
Text: as §1

[18] = tested on: E. cloacae 551; test: MIC against E. cloacae 551; assay type: cell-based; conditions: Enterobacter cloacae; Table 2; E. cloacae 551, Caz R, IMP S; alone; read-out: MIC
Text: as §1

[19] = tested on: E. coli 2671; test: MIC against E. coli 2671; assay type: cell-based; conditions: Escherichia coli; Table 2; E. coli 2671, VIM-19; alone; read-out: MIC
Text: as §1

[20] = tested on: S. pneumoniae 2492; test: MIC against S. pneumoniae 2492; assay type: cell-based; conditions: Streptococcus pneumoniae; Table 2; S. pneumoniae 2492, Pen R; alone; read-out: MIC
Text: as §1

[21] = tested on: E. coli 4098; test: MIC against E. coli 4098; assay type: cell-based; conditions: Escherichia coli; Table 2; E. coli 4098, CTX-M-15, TEM-1; alone; read-out: MIC
Text: as §1

[22] = tested on: S. pneumoniae 2406; test: MIC against S. pneumoniae 2406; assay type: cell-based; conditions: Streptococcus pneumoniae; Table 2; S. pneumoniae 2406, Pen S; alone; read-out: MIC
Text: as §1

[23] = tested on: K. pneumoniae 2712; test: MIC against K. pneumoniae 2712; assay type: cell-based; conditions: Klebsiella pneumoniae; Table 3; K. pneumoniae 2712, KPC-3, VIM-1; alone; read-out: MIC
Experimental: as §2

[24] = tested on: K. pneumoniae 2689; test: MIC against K. pneumoniae 2689; assay type: cell-based; conditions: K. pneumoniae 2689, KPC-2, alone, read-out: MIC
Experimental: as §2

Compound: CC(C)(O/N=C(\C(=O)N[C@@H]1C(=O)N2C(C(=O)[O-])=C(C[n+]3ccc4c(ccn4Cc4ccc(C(=N)N)cc4)c3)CS[C@H]12)c1csc(N)n1)C(=O)O [Ex-1, (6R,7R)-7-{[(2Z)-2-(2-Amino-1,3-thiazol-4-yl)-2-{[(2-carboxypropan-2-yl)oxy]imino}acetyl]-amino}-3-{[1-(4-carbamimidoylbenzyl)-1H-pyrrolo[3,2-c]pyridin-5-ium-5-yl]methyl}-8-oxo-5-thia-1-azabicyclo[4.2.0]oct-2-ene-2-carboxylate]
- MIC [1]: 2 µg/mL
- MIC [2]: 0.25 µg/mL
- MIC [3]: 8 µg/mL
- MIC [4]: 2 µg/mL
- MIC [5]: 8 µg/mL
- MIC [6]: 4 µg/mL
- MIC [7]: 4 µg/mL
- MIC [8]: 4 µg/mL
- MIC [9]: 4 µg/mL
- MIC [10]: 4 µg/mL
- MIC [11]: ≤ 0.06 µg/mL
- MIC [12]: 16 µg/mL
- MIC [13]: ≤ 0.06 µg/mL
- MIC [14]: ≤ 0.06 µg/mL
- MIC [15]: > 32 µg/mL
- MIC [16]: 0.25 µg/mL
- MIC [17]: 16 µg/mL
- MIC [18]: 32 µg/mL
- MIC [19]: 16 µg/mL
- MIC [20]: 2 µg/mL
- MIC [21]: 4 µg/mL
- MIC [22]: ≤ 0.06 µg/mL
- MIC [23]: > 32 µg/mL
- MIC ([24]; Klebsiella pneumoniae, 2689, Table 2): 8 µg/mL (≈ 11.1 µM)
- MIC ([24]; Klebsiella pneumoniae, 2689, Table 3): 16 µg/mL (≈ 22.3 µM)
